Like-named read-outs stand apart in the source and are kept apart here.
Test system: subjects with metastatic or surgically unresectable urothelial cancer
Protocol: Study treatment was administered on 28-day cycles. […] Patients were randomized 1:1 to 28-day cycles to the following 2 regimens until a regimen was selected for further study: Regimen 1 (10 mg once daily intermittent (7 days on/7 days); Regimen 2 (6 mg once daily continuous). Randomization was stratified according to performance status (0 to 1 vs. 2), hemoglobin value (<10 vs. ≥10 g per dl), FGFR alteration type (mutation vs. fusion), prior treatment status (chemotherapy-resistant vs. chemotherapy naïve), and disease distribution (presence or absence of visceral [liver, lung, bone]metastases). Starting dose selection was based on phase 1 efficacy and tolerability.
Based on interim analysis and pharmacokinetic-pharmacodynamic modeling of serum phosphate levels, starting dose was increased to 8 mg per day continuous (Regimen 3). Thus, after interim analysis, this became a single-arm study. […] Treatment continued until disease progression or unacceptable adverse event(s) per investigator.
Safety was evaluated based on clinical laboratory tests, physical exams, electrocardiograms, and ophthalmology examinations. Adverse events and abnormalities were assessed by investigator and graded per NCI CTCAE v.4.0
Prophylactic measures were taken to minimize risk of common adverse events related to FGFR inhibition. To reduce risk of hyperphosphatemia, a low-phosphate diet was recommended for all patients (600 to 800 mg of dietary phosphate intake per day). To reduce the risk of skin effects, the application of alcohol-free emollient moisturizing cream and avoidance of unnecessary exposure to sunlight, soap, perfumed products, and hot baths was recommended. Patients were asked to keep their fingers and toes clean and nails trimmed to reduce risk of nail effects.
Additional ophthalmology examinations were performed if clinically indicated.

COc1cc(OC)cc(N(CCNC(C)C)c2ccc3ncc(-c4cnn(C)c4)nc3c2)c1 [erdafitinib, N-(3,5-dimethoxy-phenyl)-N′-(1-methylethyl)-N-[3-(1-methyl-1H-pyrazol-4-yl)quinoxalin-6-yl]ethane-1,2-diamine]
Serious treatment-emergent: Dyspnea (6 mg continuous, n = 78): 1 (1) no. (%)
Serious treatment-emergent: Eye disorders (6 mg continuous, n = 78): 3 (4) no. (%)
Serious treatment-emergent: Gastrointestinal disorders (6 mg continuous, n = 78): 8 (10) no. (%)
Serious treatment-emergent: Infections and infestations (6 mg continuous, n = 78): 13 (17) no. (%)
Serious treatment-emergent: Metabolism and nutrition disorders (6 mg continuous, n = 78): 3 (4) no. (%)
Serious treatment-emergent: Nervous system disorders (6 mg continuous, n = 78): 5 (6) no. (%)
Serious treatment-emergent: Renal and urinary disorders (6 mg continuous, n = 78): 5 (6) no. (%)
Serious treatment-emergent: Respiratory, thoracic, mediastinal disorders (6 mg continuous, n = 78): 3 (4) no. (%)
Serious treatment-emergent: Urinary tract infection (6 mg continuous, n = 78): 4 (5) no. (%)
Serious treatment-emergent: Urosepsis (6 mg continuous, n = 78): 3 (4) no. (%)
Total number of patients with serious treatment-emergent adverse events (6 mg continuous, n = 78): 39 (50) no. (%)
Serious treatment-emergent: Dyspnea (8 mg continuous, n = 99): 2 (2) no. (%)
Serious treatment-emergent: Eye disorders (8 mg continuous, n = 99): 9 (9) no. (%)
Serious treatment-emergent: Gastrointestinal disorders (8 mg continuous, n = 99): 8 (8) no. (%)
Serious treatment-emergent: Infections and infestations (8 mg continuous, n = 99): 9 (9) no. (%)
Serious treatment-emergent: Metabolism and nutrition disorders (8 mg continuous, n = 99): 2 (2) no. (%)
Serious treatment-emergent: Nervous system disorders (8 mg continuous, n = 99): 1 (1) no. (%)
Serious treatment-emergent: Renal and urinary disorders (8 mg continuous, n = 99): 10 (10) no. (%)
Serious treatment-emergent: Respiratory, thoracic, mediastinal disorders (8 mg continuous, n = 99): 3 (3) no. (%)
Serious treatment-emergent: Urinary tract infection (8 mg continuous, n = 99): 3 (3) no. (%)
Serious treatment-emergent: Urosepsis (8 mg continuous, n = 99): 2 (2) no. (%)
Total number of patients with serious treatment-emergent adverse events (8 mg continuous, n = 99): 39 (39) no. (%)
Treatment-related Alanine aminotransferase increased, any grade (8 mg continuous, n = 99): 12 (12) no. (%)
Treatment-related Alanine aminotransferase increased, grade 1 (8 mg continuous, n = 99): 9 (9) no. (%)
Treatment-related Alanine aminotransferase increased, grade 2 (8 mg continuous, n = 99): 2 (2) no. (%)
Treatment-related Alanine aminotransferase increased, grade 3 (8 mg continuous, n = 99): 1 (1) no. (%)
Treatment-related Alopecia, any grade (8 mg continuous, n = 99): 27 (27) no. (%)
Treatment-related Alopecia, grade 1 (8 mg continuous, n = 99): 21 (21) no. (%)
Treatment-related Alopecia, grade 2 (8 mg continuous, n = 99): 6 (6) no. (%)
Treatment-related Alopecia, grade 3 (8 mg continuous, n = 99): 0 no. (%)
Treatment-related Asthenia, any grade (8 mg continuous, n = 99): 13 (13) no. (%)
Treatment-related Asthenia, grade 1 (8 mg continuous, n = 99): 2 (2) no. (%)
Treatment-related Asthenia, grade 2 (8 mg continuous, n = 99): 9 (9) no. (%)
Treatment-related Asthenia, grade 3 (8 mg continuous, n = 99): 2 (2) no. (%)
Treatment-related Decreased appetite, any grade (8 mg continuous, n = 99): 25 (25) no. (%)
Treatment-related Decreased appetite, grade 1 (8 mg continuous, n = 99): 11 (11) no. (%)
Treatment-related Decreased appetite, grade 2 (8 mg continuous, n = 99): 14 (14) no. (%)
Treatment-related Decreased appetite, grade 3 (8 mg continuous, n = 99): 0 no. (%)
Treatment-related Diarrhea, any grade (8 mg continuous, n = 99): 37 (37) no. (%)
Treatment-related Diarrhea, grade 1 (8 mg continuous, n = 99): 21 (21) no. (%)
Treatment-related Diarrhea, grade 2 (8 mg continuous, n = 99): 12 (12) no. (%)
Treatment-related Diarrhea, grade 3 (8 mg continuous, n = 99): 4 (4) no. (%)
Treatment-related Dry eye, any grade (8 mg continuous, n = 99): 19 (19) no. (%)
Treatment-related Dry eye, grade 1 (8 mg continuous, n = 99): 14 (14) no. (%)
Treatment-related Dry eye, grade 2 (8 mg continuous, n = 99): 4 (4) no. (%)
Treatment-related Dry eye, grade 3 (8 mg continuous, n = 99): 1 (1) no. (%)
Treatment-related Dry mouth, any grade (8 mg continuous, n = 99): 43 (43) no. (%)
Treatment-related Dry mouth, grade 1 (8 mg continuous, n = 99): 32 (32) no. (%)
Treatment-related Dry mouth, grade 2 (8 mg continuous, n = 99): 11 (11) no. (%)
Treatment-related Dry mouth, grade 3 (8 mg continuous, n = 99): 0 no. (%)
Treatment-related Dry skin, any grade (8 mg continuous, n = 99): 32 (32) no. (%)
Treatment-related Dry skin, grade 1 (8 mg continuous, n = 99): 24 (24) no. (%)
Treatment-related Dry skin, grade 2 (8 mg continuous, n = 99): 8 (8) no. (%)
Treatment-related Dry skin, grade 3 (8 mg continuous, n = 99): 0 no. (%)
Treatment-related Dysgeusia, any grade (8 mg continuous, n = 99): 35 (35) no. (%)
Treatment-related Dysgeusia, grade 1 (8 mg continuous, n = 99): 22 (22) no. (%)
Treatment-related Dysgeusia, grade 2 (8 mg continuous, n = 99): 12 (12) no. (%)
Treatment-related Dysgeusia, grade 3 (8 mg continuous, n = 99): 1 (1) no. (%)
Treatment-related Fatigue, any grade (8 mg continuous, n = 99): 21 (21) no. (%)
Treatment-related Fatigue, grade 1 (8 mg continuous, n = 99): 8 (8) no. (%)
Treatment-related Fatigue, grade 2 (8 mg continuous, n = 99): 11 (11) no. (%)
Treatment-related Fatigue, grade 3 (8 mg continuous, n = 99): 2 (2) no. (%)
Treatment-related Hand-foot syndrome, any grade (8 mg continuous, n = 99): 22 (22) no. (%)
Treatment-related Hand-foot syndrome, grade 1 (8 mg continuous, n = 99): 5 (5) no. (%)
Treatment-related Hand-foot syndrome, grade 2 (8 mg continuous, n = 99): 12 (12) no. (%)
Treatment-related Hand-foot syndrome, grade 3 (8 mg continuous, n = 99): 5 (5) no. (%)
Treatment-related Hyperphosphatemia, any grade (8 mg continuous, n = 99): 72 (73) no. (%)
Treatment-related Hyperphosphatemia, grade 1 (8 mg continuous, n = 99): 49 (50) no. (%)
Treatment-related Hyperphosphatemia, grade 2 (8 mg continuous, n = 99): 21 (21) no. (%)
Treatment-related Hyperphosphatemia, grade 3 (8 mg continuous, n = 99): 2 (2) no. (%)
Treatment-related Lacrimation increased, any grade (8 mg continuous, n = 99): 11 (11) no. (%)
Treatment-related Lacrimation increased, grade 1 (8 mg continuous, n = 99): 8 (8) no. (%)
Treatment-related Lacrimation increased, grade 2 (8 mg continuous, n = 99): 3 (3) no. (%)
Treatment-related Lacrimation increased, grade 3 (8 mg continuous, n = 99): 0 no. (%)
Treatment-related Nail dystrophy, any grade (8 mg continuous, n = 99): 16 (16) no. (%)
Treatment-related Nail dystrophy, grade 1 (8 mg continuous, n = 99): 5 (5) no. (%)
Treatment-related Nail dystrophy, grade 2 (8 mg continuous, n = 99): 5 (5) no. (%)
Treatment-related Nail dystrophy, grade 3 (8 mg continuous, n = 99): 6 (6) no. (%)
Treatment-related Onycholysis, any grade (8 mg continuous, n = 99): 16 (16) no. (%)
Treatment-related Onycholysis, grade 1 (8 mg continuous, n = 99): 4 (4) no. (%)
Treatment-related Onycholysis, grade 2 (8 mg continuous, n = 99): 10 (10) no. (%)
Treatment-related Onycholysis, grade 3 (8 mg continuous, n = 99): 2 (2) no. (%)
Treatment-related Paronychia, any grade (8 mg continuous, n = 99): 14 (14) no. (%)
Treatment-related Paronychia, grade 1 (8 mg continuous, n = 99): 1 (1) no. (%)
Treatment-related Paronychia, grade 2 (8 mg continuous, n = 99): 10 (10) no. (%)

Reference: patent US12691112B2, “FGFR tyrosine kinase inhibitors for the treatment of urothelial carcinoma” (Janssen Pharmaceutica NV, priority 2019, dated 2026)
